Measurements reported in publication PMC7712488 (Vaccines, 2020).

Each substance was assayed on DQ0602 (assay: DQ0602 peptide competition binding assay (vs Bio-EBV epitope, DELFIA TRF)). Details: Suppl Table 1, motif in Pandemrix; 40 μM competitor vs 1 μM Bio-EBV, 25 nM DQ0602, pH 4.6, 3 days 37 °C, duplicate; <25% strong, 25–50% weak binder.
Protocol: The reaction was quenched by adding two volumes of neutralization buffer (100 mM Tris-HCl, pH = 8.6, 150 mM NaCl, 1% BSA, 0.5 Nonidet P-40 (IGEPAL CA-630, Sigma), 0.1% NaN3). Monoclonal anti-DQ (SPV-L3) antibodies (Cat# BNUM0200-50, Biotium, Fremont, CA, USA) (1:400 dilution in 100 mM carbonate-bicarbonate buffer, pH = 9.5) were coated onto a high binding 96-well plate (REF# 9018, Corning), and incubated with neutralized reaction for 1–2 h at room temperature (RT). After washing five times with 300 μL/well of wash buffer (phosphate-buffered saline (PBS), 0.05% Tween-20, pH = 7.4), 100 μL/well of Europium (Eu)-labelled streptavidin (Cat# 1244–360, PerkinElmer, Waltham, MA, USA) (1:1000 dilution in PBS, 1% BSA, pH = 7.4) was added and incubated for 1 h at RT. After washing 5 times again with 300 μL/well of wash buffer, DELFIA® time-resolved fluorescence (TRF) intensity was detected using a Tecan Infinite® M1000 after adding 100 μL/well of enhancement solution (Cat# 1244–105, PerkinElmer). Non-specific binding was removed through extensive wash with wash buffer.
A combination of in-vitro and in-silico methods was adopted to address this question. We synthesized 15 mer peptide stretches overlapping by 4mers using the most abundant viral proteins (HA, NA, NP, M1 & PB2) from reference strains (X179A and wild type pH1N1) as a template. […] In this way, a database of experimentally derived peptide binders from the abundant viral proteins was built. Next, we compared the mutated motifs (Table 3) from the vaccines to the reference motifs already tested for DQ0602 binding.

| Substance | %DQ6-EBV Binding (PANDEMRIX motif) |
| --- | --- |
| DPNNMDKAVK[L > M]YRKLKREIT | 71.82% |
| LEVLMEWLKT[R > I]PILSPLTKG | 51.58% |
| LQRRRFVQNA[L > P]NGNGDPNNM | 88.31% |
| MASQGTKRSY[E > Q]QMETDGERQ | 78.07% |
| NALNGNGDPN[N > D]MDKAVKLYR | 27.47% |
| NNAKEIGNGC[F > Y]EFYHKCDNT | 84.06% |
| NTSLPFQNIH[P > Q]ITIGKCPKY | 42.35% |
| QGRGVFELSD[E]KAASPIVPS | 14.93% |
| QNALNGNGDP[N > D]NMDKAVKLY | 6.87% |
| QRRRFVQNAL[N > D]GNGDPNNMD | 77.89% |
| QVYSLIRPNE[N > D]PAHKSQLVW | 35.94% |
| RTTIMAAFNG[N > D]TEGRTSDMR | 12.48% |
| VGKEFNHLEK[R > I]IENLNKKVD | 42.31% |

Same assay, conditions: Suppl Table 1, reference motif of X179A; 40 μM competitor vs 1 μM Bio-EBV, 25 nM DQ0602, pH 4.6, 3 days 37 °C, duplicate; <25% strong, 25–50% weak binder

| Substance | %DQ6-EBV Binding (X179A motif) |
| --- | --- |
| DPNNMDKAVK[L]YRKLKREIT | 73.65% |
| LEVLMEWLKT[R]PILSPLTKG | 116.06% |
| LQRRRFVQNA[L]NGNGDPNNM | 83.1% |
| MASQGTKRSY[E]QMETDGERQ | 67.56% |
| NALNGNGDPN[N]MDKAVKLYR | 32.79% |
| NNAKEIGNGC[F]EFYHKCDNT | 79.28% |
| NTSLPFQNIH[P]ITIGKCPKY | 56.53% |
| QGRGVFELSD[E]KAASPIVPS | 14.93% |
| QNALNGNGDP[N]NMDKAVKLY | 6.01% |
| QRRRFVQNAL[N]GNGDPNNMD | 66.28% |
| QVYSLIRPNE[N]PAHKSQLVW | 48.19% |
| VGKEFNHLEK[R]IENLNKKVD | 80.71% |

Same assay, conditions: Suppl Table 1, wild type pH1N1 motif; 40 μM competitor vs 1 μM Bio-EBV, 25 nM DQ0602, pH 4.6, 3 days 37 °C, duplicate; <25% strong, 25–50% weak binder

| Substance | %DQ6-EBV Binding (PH1N1 motif) |
| --- | --- |
| DPNNMDRAVK[L]YKKLKREIT | 67.01% |
| LEALMEWLKT[R]PILSPLTKG | 31.61% |
| LQRRRFVQNA[L]NGNGDPNNM | 83.1% |
| MASQGTKRSY[E]QMETGGERQ | 71.8% |
| NALNGNGDPN[N]MDRAVKLYK | 21.69% |
| NNAKEIGNGC[F]EFYHKCDNT | 79.28% |
| NTSLPFQNIH[P]ITIGKCPKY | 56.53% |
| QGRGVFELSD[E]KATNPIVPS | 39.96% |
| QRRRFVQNAL[N]GNGDPNNMD | 66.28% |
| QVVSLMRPNE[N]PAHKSQLVW | 31.89% |
| VGKEFNHLEK[R]IENLNKKVD | 80.71% |
